The text below walks through data of patent publication US8741884B2, “Compounds for the treatment of hepatitis C” (priority 2010, dated 2014).

The assay relates to HCV pseudoparticles (genotype 1a HCV E1 and E2 envelope, H77C isolate). In words: microbe, parasite or virus in culture. It is filed as cell-based.
Setting [1] is: Hepatitis C virus, Huh-7, 48 h, class symbol, HCV pseudoparticles genotype 1a (H77C), Huh7 cells, luciferase 2 days after infection, average of duplicates.
Setting [2] is: Hepatitis C virus, Huh-7, 48 h, numeric value, HCV pseudoparticles genotype 1a (H77C), Huh7 cells, luciferase 2 days after infection, average of duplicates.

The structures appear in SMILES notation. Where two headings read alike, the source gives them in different places.

With `O=C(NC[C@H](NC(=O)c1ccc2cc1OCCCCCCOc1ccc(cc1)CNc1nc(nc(OCC(F)(F)F)n1)N2)C(=O)O)c1ccccc1` [Example 1562], the EC50 (as a rule, the concentration at which the effect is half-maximal) by setting is: under setting [1], 0.1 to 100 nM; under setting [2], 28.7 nM.
In turn, `CC(C)(C)OC(=O)N1CCCCOc2cc(ccc2C(=O)NCC2(CN3CCCC3)CC2)Nc2nc(nc(OCC(F)(F)F)n2)NCc2ccc(cc2)OCCC1` [Example 3016] yielded an EC50 under setting [1] of 0.1 to 100 nM.
Take `NC[C@H](NC(=O)c1ccc2cc1OCCCCCCOc1ccc(cc1)CNc1nc(nc(OCC(F)(F)F)n1)N2)C(=O)O` [Example 1559]: the EC50 (read-out: EC50) was in the range of 0.1 to 100 nM.
For the compound `O=C(O)CCCCNC(=O)c1ccc2cc1OCCCCCCOc1ccc(cc1)CNc1nc(nc(OCC(F)(F)F)n1)N2` [Example 1408], the EC50 under setting [1] fell in the range of 0.1 to 100 nM.
Turning to `N=C(N)NCCC[C@H](NC(=O)c1ccc2cc1OCCCCCCOc1ccc(cc1)CNc1nc(nc(OCC(F)(F)F)n1)N2)C(N)=O` [Example 1313], the EC50 under setting [1] is 0.1 to 100 nM.
Under setting [1], `CNC(=O)NC[C@H](NC(=O)c1ccc2cc1OCCCCCCOc1ccc(cc1)CNc1nc(nc(OCC(F)(F)F)n1)N2)C(=O)OC` [Example 1706] displayed an EC50 of 0.1 to 100 nM.
The same measure, in the same setting: next, `O=C(O)c1ccc2cc1OCCCCCCOc1ccc(cc1)CNc1nc(nc(OCC(F)(F)F)n1)N2` [Example 1302]: 1000 to 50000 nM.
For the compound `N=C(N)NCCCCNC(=O)c1ccc2cc1OCCCCCCOc1ccc(cc1)CNc1nc(nc(OCC(F)(F)F)n1)N2` [Example 1314], the EC50 under setting [1] is 0.1 to 100 nM.
Same read-out and setting: next, `COC(=O)[C@H](CNC(=O)OC(C)(C)C)NC(=O)c1ccc2cc1OCCCCCCOc1ccc(cc1)CNc1nc(nc(OCC(F)(F)F)n1)N2` [Example 1321]: 0.1 to 100 nM; `COC(=O)[C@H](CNS(C)(=O)=O)NC(=O)c1ccc2cc1OCCCCCCOc1ccc(cc1)CNc1nc(nc(OCC(F)(F)F)n1)N2` [Example 1702]: 0.1 to 100 nM; `COC(=O)C(NC(=O)c1ccc2cc1OCCCCCCOc1ccc(cc1)CNc1nc(nc(OCC(F)(F)F)n1)N2)C1CCCN(C(=O)OC(C)(C)C)C1` (stereo not drawn) [Example 1304]: 0.1 to 100 nM.
As for `CCOC(=O)N1CCCCOc2cc(ccc2C(=O)NCC2(CN3CCCC3)CC2)Nc2nc(nc(OCC(F)(F)F)n2)NCc2ccc(cc2)OCCC1` [Example 3020], under setting [1], the EC50 was in the range of 0.1 to 100 nM.
On the same count and under the same terms, next, `CCOC(=O)N1CCCOc2ccc(cc2)CNc2nc(nc(OCC(F)(F)F)n2)Nc2ccc(C(=O)NCC3(CN4CCCC4)CC3)c(c2)OCCC1` [Example 3005]: 0.1 to 100 nM; `COC(=O)N1CCCOc2ccc(cc2)CNc2nc(nc(OCC(F)(F)F)n2)Nc2ccc(C(=O)NCC3(CN4CCCC4)CC3)c(c2)OCCC1` [Example 3004]: 0.1 to 100 nM.
Regarding `CCNC(=O)N1CCCOc2ccc(cc2)CNc2nc(nc(OCC(F)(F)F)n2)Nc2ccc(C(=O)NCC3(CN4CCCC4)CC3)c(c2)OCCC1` [Example 3008], the EC50 by setting is: under setting [1], 0.1 to 100 nM; under setting [2], 5.36 nM.
Take `NC[C@@H](NC(=O)c1ccc2cc1OCCCCCCOc1ccc(cc1)CNc1nc(nc(OCC(F)(F)F)n1)N2)C(=O)O` [Example 1555]: the EC50 under setting [1] was in the range of 100 to 1000 nM.
Same read-out and setting: for `COC(=O)c1ccc2cc1OCC=CCOc1ccc(cc1)CNc1nc(nc(OCC(F)(F)F)n1)N2` [Example 2005] the value was 0.1 to 100 nM.
As to `C=C1CNCCNc2nc(nc(OCC(F)(F)F)n2)Nc2cccc(c2)CNC1` [Example 1016], the EC50 (read-out: EC50) is 1000 to 50000 nM.
Take `COC(=O)CCCNC(=O)c1ccc2cc1OCCCCCCCCOc1ccc(cc1)CNc1nc(nc(OCC(F)(F)F)n1)N2` [Example 1101]: the EC50 under setting [1] was in the range of 0.1 to 100 nM.
Turning to `CCCCN1CCCOc2ccc(cc2)CNc2nc(nc(OCC(F)(F)F)n2)Nc2ccc(C(=O)NCC3(CN4CCCC4)CC3)c(c2)OCCC1` [Example 3014], under setting [1], the EC50 is 0.1 to 100 nM.
Same read-out and setting: next, `COC(=O)C(NC(=O)c1ccc2cc1OCCCCCCOc1ccc(cc1)CNc1nc(nc(OCC(F)(F)F)n1)N2)C1CCN(C(=O)OC(C)(C)C)C1` (stereo not drawn) [Example 1310]: 0.1 to 100 nM.
Still for that read-out and setting: next, `COC(=O)[C@H](CNC(C)=O)NC(=O)c1ccc2cc1OCCCCCCOc1ccc(cc1)CNc1nc(nc(OCC(F)(F)F)n1)N2` [Example 1701]: 0.1 to 100 nM.
Still for that read-out and setting: next, `CN(C)CC(C)(C)CNC(=O)c1ccc2cc1OCCCCCCOc1ccc(cc1)CNc1nc(nc(OCC(F)(F)F)n1)N2` [Example 1202]: 0.1 to 100 nM.
In the case of `CC(C)(C)OC(=O)NC[C@@H](NC(=O)c1ccc2cc1OCCCCCCOc1ccc(cc1)CNc1nc(nc(OCC(F)(F)F)n1)N2)C(=O)O` [Example 1556], the EC50 by setting is: under setting [1], 100 to 1000 nM; under setting [2], 101 nM.
The compound `C=C1COc2ccc(cc2)CNc2nc(nc(OCC(F)(F)F)n2)Nc2ccc(C(=O)NCC3(CN4CCCC4)CC3)c(c2)OC1` [Example 1006] returned an EC50 under setting [1] of 1000 to 50000 nM.
Regarding `CC(C)(C)OC(=O)N[C@@H](CCNC(=O)c1ccc2cc1OCCCCCCOc1ccc(cc1)CNc1nc(nc(OCC(F)(F)F)n1)N2)C(=O)OC(C)(C)C` [Example 1325], under setting [1], the EC50 fell in the range of 0.1 to 100 nM.
The same measure, in the same setting: for `CCOC(=O)[C@H]1CN(C(=O)OC(C)(C)C)C[C@H]1NC(=O)c1ccc2cc1OCCCCCCOc1ccc(cc1)CNc1nc(nc(OCC(F)(F)F)n1)N2` [Example 1320] the value was 0.1 to 100 nM; for `COC(=O)c1ccc2cc1OCCCCOc1cccc(c1)CNc1nc(nc(OCC(F)(F)F)n1)N2` [Example 1801], 100 to 1000 nM.
Still for that read-out and setting: for `FC(F)(F)COc1nc2nc(n1)NC1(CC1)c1ccc(cc1)OC/C=C/COc1cccc(c1)N2` [Example 2008] the value was 0.1 to 100 nM.
Consider `CNC(=O)NC[C@H](NC(=O)c1ccc2cc1OCCCCCCOc1ccc(cc1)CNc1nc(nc(OCC(F)(F)F)n1)N2)C(=O)O` [Example 1707], for which the EC50 under setting [1] fell in the range of 0.1 to 100 nM.
`CC(C)CN1CCCOc2ccc(cc2)CNc2nc(nc(OCC(F)(F)F)n2)Nc2ccc(C(=O)NCC3(CN4CCCC4)CC3)c(c2)OCCC1` [Example 3013]: the EC50 under setting [1] lay within 0.1 to 100 nM.
Same read-out and setting: for `NC(=O)C(Cc1ccccc1)NC(=O)c1ccc2cc1OCCCCCCOc1ccc(cc1)CNc1nc(nc(OCC(F)(F)F)n1)N2` (stereo not drawn) [Example 1319] the value was 0.1 to 100 nM; for `CC(C)OC(=O)N1CCCCOc2cc(ccc2C(=O)NCC2(CN3CCCC3)CC2)Nc2nc(nc(OCC(F)(F)F)n2)NCc2ccc(cc2)OCCC1` [Example 3021], 0.1 to 100 nM.
For the compound `CC(C)(C)OC(=O)N1CCCC(C(NC(=O)c2ccc3cc2OCCOCCOCCOc2ccc(cc2)CNc2nc(nc(OCC(F)(F)F)n2)N3)C(=O)O)C1` (stereo not drawn) [Example 1605], the EC50 was 0.1 to 100 nM under setting [1] and 23 nM under setting [2].
Turning to `COC(=O)[C@H](CNC(=O)c1ccccc1)NC(=O)c1ccc2cc1OCCCCCCOc1ccc(cc1)CNc1nc(nc(OCC(F)(F)F)n1)N2` [Example 1323], the EC50 under setting [1] is 0.1 to 100 nM.
On the same count and under the same terms, for `CC(C)NC(=O)N1CCCOc2ccc(cc2)CNc2nc(nc(OCC(F)(F)F)n2)Nc2ccc(C(=O)NCC3(CN4CCCC4)CC3)c(c2)OCCC1` [Example 3009] the value was 0.1 to 100 nM.
`COC(=O)c1ccc2cc1OCCCCOC[C@H](c1ccccc1)Nc1nc(nc(OCC(F)(F)F)n1)N2` [Example 1003]: where the note is “read-out: EC50”, the EC50 lay within 1000 to 50000 nM.
As to `CN1CCCOc2ccc(cc2)CNc2nc(nc(OCC(F)(F)F)n2)Nc2ccc(C(=O)NCC3(CN4CCCC4)CC3)c(c2)OCCC1` [Example 3010], the EC50 under setting [1] is 0.1 to 100 nM.
Under setting [1], `O=C(c1ccc2cc1OCCCCCCCCOc1ccc(cc1)CNc1nc(nc(OCC(F)(F)F)n1)N2)N1CCC2(CCNC2)C1` (stereo not drawn) [Example 1153] came in with an EC50 of 100 to 1000 nM.
Consider `CC(C)(C)OC(=O)N1CCC(CNC(=O)c2ccc3cc2OCCCCCCCCOc2ccc(cc2)CNc2nc(nc(OCC(F)(F)F)n2)N3)C1` (stereo not drawn) [Example 1105], for which the EC50 is, setting by setting: under setting [1], 0.1 to 100 nM; under setting [2], 49.1 nM.
